The text below walks through data of paper PMC2794939 (Biochemistry, 2009).

The IC50 is the concentration that inhibits the measured activity by half. Usually Kd stands for the constant that tells how readily two partners part at equilibrium.

The structures appear in SMILES notation.

Assay [1] deals with wt influenza virus (A/Udorn/72). It counts as cell-based.
In assay [2] the target is T1, A/M2 wt channel (Influenza A virus, UniProt P0DOF5). The assay is classed as cell-based.
For assay [3], the target named is T1, A/M2 wt channel. The following applies: cited from earlier work.
The target in assay [4] is T2, transmembrane domain of wt A/M2 protein (M2TM, residues 22–46) (Influenza A virus, UniProt P0DOF5).
T2 sequence (P0DOF5 22-46 limits assumed): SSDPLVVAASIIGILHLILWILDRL
It counts as binding. The following applies: pH 7.4.

T1 sequence (P0DOF5 whole entry): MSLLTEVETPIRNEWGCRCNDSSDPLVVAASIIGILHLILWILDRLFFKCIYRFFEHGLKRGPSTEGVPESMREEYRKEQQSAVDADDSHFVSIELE

With `C1CCC2(CC1)CCN(C1=NCCN1)CC2` [BL-1743, 2-[3-azaspiro([5],[5])undecanol]-2-imidazoline], the “concentrations at which plaque formation was inhibited” value in assay [1] was in the range of 50 to 100 µM. In assay [2], the “% remaining activity after application of 100 μM compound” value is listed as 25.3±1.3% and the “voltage dependence of inhibition” value is “voltage-independence”. In assay [2] (pH 5.5), this compound had a half-inhibitory concentration (IC50) of 45.3 ± 3.92 µM. Besides, the “reversibility of inhibition / washout rate” value in assay [2] (pH 8.5) is reported as “essentially fully reversible”. Moreover, in assay [2] (read-out: AM2 channel activity after 100μM compound inhibition), the activity is 25%. Further, in assay [3], the “dissociation rate constant (κoff)” value is on record as 10^−3 s^−1; the “second-order rate constant (κon) for association and inhibition” value was 720 M⁻¹ s⁻¹. This compound showed a Kd in assay [4] of 194 µM.

As to `NC1CCC2(CCCCC2)CC1` [Compound 8, spiro[5.5]undecan-3-amine], the “voltage dependence of inhibition” value in assay [2] is recorded as “voltage-independence”. For the same compound, in assay [2] (pH 8.5), the “reversibility of inhibition / washout rate” value is recorded as “not significantly different from that of amantadine”.

On to `NC12CC3CC(CC(C3)C1)C2` [Amantadine, amantadine], for which the “voltage dependence of inhibition” value in assay [2] was “voltage-independence”. Further, in assay [2] (pH 8.5), the “reversal of inhibition in the time frame of 5 min” value was “about 10%”. Also, the “dissociation rate constant (κoff)” value in assay [3] is given as 10^−4 s^−1.
